Source: US20080139608A1, “2,6,8, Trisubstituted 1-deazapurines and their different uses” (Universiteit Leiden, priority 2006, published 2008)

Assays:
[1] = biological target: T1, human adenosine A1 receptor (Homo sapiens, UniProt P30542); experiment: Radioligand binding assay, displacement of specific [3H]DPCPX binding; conditions: CHO cells expressing human adenosine A1 receptors; n = 3; read-out: A1 Ki ± SEM, displacement of specific [3H]DPCPX binding
T1 construct: expressed in transfected cells; host or cells: CHO cells
T1 sequence (P30542 1-326): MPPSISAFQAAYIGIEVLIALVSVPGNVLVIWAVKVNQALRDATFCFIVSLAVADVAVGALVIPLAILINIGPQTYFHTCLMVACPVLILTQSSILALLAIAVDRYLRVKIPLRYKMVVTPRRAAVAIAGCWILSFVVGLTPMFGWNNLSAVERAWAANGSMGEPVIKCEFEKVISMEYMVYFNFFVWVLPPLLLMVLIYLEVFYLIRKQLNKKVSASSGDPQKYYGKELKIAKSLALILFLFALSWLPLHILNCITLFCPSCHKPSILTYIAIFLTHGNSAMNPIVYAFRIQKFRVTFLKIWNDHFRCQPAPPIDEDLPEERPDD
Experimental: Radioligand Binding Studies [^3H]DPCPX was purchased from Amersham. All compounds made were tested in radioligand binding assays to determine their affinities at the human adenosine A1 receptor. The affinities at the A1 receptors were determined on CHO cells expressing the human receptors, using [^3H]DPCPX as the radioligand according to a previously described method.^11
Data Analysis Competition binding data were fit to a single-site binding model and plotted using the software package Prism (Graph Pad, San Diego, Calif., USA). The Cheng-Prusoff equation Ki=IC50/(1+[I]/Kd) was used to calculate Ki values, where Ki is the affinity constant for the competing ligand, [I] is the concentration of the free radioligand, and Kd is the affinity constant for the radioligand.

| SMILES | Ki [1] [nM] | melting point [°C] |
| --- | --- | --- |
| CCCc1nc2c(-c3ccccc3)cc(-c3ccccc3)nc2[nH]1 [Compound 6, 2,6-Diphenyl-8-propyl-1-deazapurine] | 2.45 ± 0.23 | – |
| CC(C)c1nc2nc(-c3ccccc3)cc(-c3ccccc3)c2[nH]1 [Compound 7, 2,6-Diphenyl-8-isopropyl-1-deazapurine] | 0.61 ± 0.04 | – |
| CC(C)CCc1nc2nc(-c3ccccc3)cc(-c3ccccc3)c2[nH]1 [Compound 9, 2,6-Diphenyl-8-isopentyl-1-deazapurine] | – | 196 to 197 |
| c1ccc(-c2cc(-c3ccccc3)c3[nH]c(C4CCCC4)nc3n2)cc1 [Compound 11, 8-Cyclopentyl-2,6-diphenyl-1-deazapurine] | 0.62 ± 0.3 | – |
| c1ccc(-c2cc(-c3ccccc3)c3[nH]c(C4CCCCC4)nc3n2)cc1 [Compound 12, 2,6-Diphenyl-8-cyclohexyl-1-deazapurine] | 0.9 ± 0.21 | – |
